Our source for the EC50, IC50 and outcome values is PubChem BioAssay AID179 (DTP/NCI, 2004).

For the experiment, the system named is CEM cells HIV-1 protection, formazan growth assay. In words: NCI AIDS Antiviral Assay. The note with it: for IC50: measured here: growth of uninfected CEM cells. The essentials:
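Soluble formazan readout of cell growth; CEM cells ± HIV-1; 5 drug concs. ≥50% protection → retest; ≥50% again = moderately active; reproducible 100% = confirmed active.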

Several values for one entry are separate records, joined by “and”; a condition that tells them apart may be missing. Identical values can stand only once. Activity calls are given as the source filed them.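 How the source made its calls: active means compounds giving half or more protection of infected cells from virus-caused growth loss, again on retest; inactive means the rest.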

As usually defined, the EC50 is the concentration at which the effect is half-maximal. A word on the IC50: it is the concentration at which inhibition is half-maximal. The low end stands for inhibition by little substance, the high end for a need for much substance. As to `O=C(CNc1c(Cl)cccc1Cl)NC1C=Cc2ccc(S(=O)(=O)Nc3c(Cl)cccc3Cl)cc2C1=O` (stereo not drawn), the EC50 was greater than 200 µM and the IC50 is 123 µM.

Regarding `C=CCNC(=S)NNC(=O)c1c(C)nc2sccn12`, the EC50 was greater than 851 µM and the IC50 is 813 µM. The matching figures for `CCN(CC)C(=O)CCN1CC1`: greater than 200 µM and greater than 200 µM. In the same order, the values of `O=C(/C=C/c1ccc(O)c(O)c1)O[C@H]1CCCC[C@@H]1OC(=O)/C=C/c1ccc(O)c(O)c1` are greater than 100 µM and 5.75 µM. In the same order, the values of `COC(=O)/C(=C/c1ccc(OC)cc1)C(C(=O)O)=C1CCCCC1` are greater than 398 µM and 5.62 µM. As to `Brc1ccc(SSc2ccc(Br)cc2)cc1`, the EC50 is greater than 200 µM; the concentration for half-maximal inhibition (IC50) is 9.12 µM and 3.39 µM.

For the molecule `O=C([O-])c1n[nH]c([O-])c1N=Nc1ccc(/C=C/c2ccc(N=Nc3c(C(=O)[O-])n[nH]c3[O-])cc2S(=O)(=O)[O-])c(S(=O)(=O)[O-])c1.[Cu+2].[Cu+2].[Na+]`, the EC50 was greater than 50.1 µM and the concentration for half-maximal inhibition (IC50) is greater than 50.1 µM. `CC(C)c1cc[n+](/C(C(=S)Nc2cccc(Cl)c2)=C(/[O-])c2ccc([N+](=O)[O-])cc2)cc1`: the EC50 is greater than 200 µM and the IC50 was found to be 69.2 µM. The matching figures for `COC(=O)C(=O)C(C(=O)C(=O)Nc1ccc(F)cc1)c1nc2ccc([N+](=O)[O-])cc2[nH]c1=O` (stereo not drawn): greater than 550 µM and 245 µM.

For `Cc1cn(C2CC(N=[N+]=[N-])C(COC(=O)CCCCCCCCCCCF)O2)c(=O)[nH]c1=O` (stereo not drawn), the EC50 is 0.162 µM and the IC50 is 2 µM. The matching figures for `CCO/C=C/C(C)C1(C(=O)OCC)CCCCC1=O` (stereo not drawn): greater than 97.7 µM and greater than 97.7 µM. In the same order, the values of `N=c1c2c(-c3ccccc3)c[nH]c2ncn1N` are greater than 200 µM and greater than 200 µM.

On to `CC1=NN(C(=O)CC(=O)Nc2cccc(Cl)c2)C(=O)C1N=Nc1ccc(S(=O)(=O)c2ccc(N=NC3C(=O)N(C(=O)CC(=O)Nc4cccc(Cl)c4)N=C3C)cc2)cc1` (stereo not drawn), for which the EC50 is greater than 100 µM and the concentration for half-maximal inhibition (IC50) is greater than 100 µM. `N#CCCN(CCC#N)c1ccc(/C=C2\N=C(COc3ccc(Cl)cc3Cl)OC2=O)cc1`: the EC50 was greater than 537 µM and the IC50 worked out at 490 µM. In the same order, the values of `O=C1OC(c2ccccc2)c2ccsc2-n2cccc21` (stereo not drawn) are greater than 200 µM and 123 µM. With `CN(C)C(=S)/N=c1\ssc(=S)n1-c1ccccc1`, the result was inactive. For the molecule `CC(/C=C/C(=O)c1sc(C(N)=S)nc1C)=C\c1ccccc1`, the EC50 was greater than 79.4 µM and the IC50 is greater than 79.4 µM. Turning to `CC1=Nn2c(nnc2-c2cccc(N)c2)NC(C)(C)C1`, the EC50 is greater than 468 µM and the concentration for half-maximal inhibition (IC50) is greater than 468 µM.

On to `CC(C)(C)C1=CC(=C2C(=O)C(=O)c3ccccc3C2=O)C=C(C(C)(C)C)C1=O`, for which the EC50 is greater than 6.92 µM and the IC50 was greater than 6.92 µM. Regarding `Cc1nnc(NS(=O)(=O)c2ccc(N=NC3SC(=S)NC3=O)cc2)s1` (stereo not drawn), the EC50 was greater than 200 µM and the IC50 is greater than 200 µM. As to `Nc1ccc2c(c1)C(=O)N(OS(=O)(=O)c1ccccc1)C2=O`, the result was inactive. With `CC(Oc1ccccc1)C(=O)NNC(=O)OC(C)(C)C` (stereo not drawn), the EC50 was greater than 200 µM and the IC50 is greater than 200 µM. As to `Cc1cn(C2CC(ONC(N)=O)C(CO[Si](C)(C)C(C)(C)C)O2)c(=O)[nH]c1=O` (stereo not drawn), the EC50 is greater than 200 µM and the IC50 turned out to be 105 µM.

As for `NC1C2C(CC(=O)O)OCC=C3CN4CCC1(C(=O)C(=O)O)C4CC32` (stereo not drawn), the EC50 is greater than 28.8 µM and the IC50 was greater than 28.8 µM. For the molecule `COC(=O)C(C(=O)C(=O)Nc1ccc([N+](=O)[O-])cc1[N+](=O)[O-])c1nc2ccc(Cl)cc2[nH]c1=O` (stereo not drawn), the EC50 is greater than 74.1 µM and the IC50 was 66.1 µM.

Take `c1ccc(-c2nc(-c3ccccc3SSc3ccccc3-c3nc(-c4ccccc4)nn3-c3ccccc3)n(-c3ccccc3)n2)cc1`: the EC50 is greater than 100 µM and the IC50 is greater than 100 µM. Turning to `OC1CN2CC[C@H](O)C2C(O)[C@@H]1O` (stereo partly drawn), the EC50 is 61.7 µM and the IC50 amounted to 1320 µM. Take `C[n+]1ccccc1/C=N/O`: the EC50 was greater than 200 µM and the IC50 is greater than 200 µM. On to `Cc1cc(C2(c3ccc(O)c(C)c3)OS(=O)(=O)c3ccccc32)ccc1O`, for which the outcome was inactive. Turning to `COc1c(OC(C)C)cc2cc(O)c(C(=O)NC3Cc4ccc(c(Cl)n4)O[C@@H]4C=C5C#C/C(=C\C#CC6OC56C4OC4CC(C)(O)C(O)C(C)O4)C(OC4CC(O)C(N(C)C)C(C)O4)COC3=O)cc2c1OC` (stereo partly drawn), the outcome was inactive.

`CN=c1ncn(C)c2ncn(C/C=C(\C)CC[C@@]3(C)C(C)CCC4(O)C3CCCC4(C)C)c12` (stereo partly drawn): the outcome was inactive.

As to `O=S(=O)(c1ccccc1)C1CC(c2ccccc2)N(c2ccccc2)O1` (stereo not drawn), the EC50 is greater than 27.5 µM and the IC50 is greater than 27.5 µM. Consider `CC1=C2CN(C(=O)OCC(C)C)CCC2C2=C(C(=O)c3ccccc3C2=O)C1C` (stereo not drawn), for which the EC50 was greater than 100 µM and the IC50 was greater than 100 µM. In the case of `C#CCNC(=O)NC(CCCCNC(=O)OCc1ccccc1)C(=O)OCc1ccccc1` (stereo not drawn), the EC50 is greater than 57.5 µM and the IC50 was 42.7 µM.

In the case of `CN(C)CCCNC(=O)c1cc(NC(=O)c2cc(NC(=O)[C@@H]3C[C@H]3C(=O)Nc3cc(C(=O)Nc4cc(C(=O)NCCCN(C)C)n(C)c4)n(C)c3)cn2C)cn1C`, the result was inactive. For the molecule `NC(=O)c1ccc[n+](C2=C([O-])c3ccccc3C(=O)/C2=N\S(=O)(=O)c2ccccc2)c1`, the EC50 is greater than 200 µM and the IC50 stood at 11.2 µM. The matching figures for `COc1ccc(-c2[nH]c(-c3ccc(OC)cc3)c(-c3ccccn3)c2-c2ccccn2)cc1`: greater than 200 µM and 24.5 µM. In the same order, the values of `CCOC(=O)Cn1c(C)nc2nn(Cc3ccccc3)cc2c1=O` are greater than 200 µM and greater than 200 µM. In the same order, the values of `Clc1cccc2[nH]ncc12` are greater than 200 µM and greater than 100 µM. As for `Clc1ccc(CN2COc3c(ccc4cccnc34)C2)c(Cl)c1`, the EC50 was greater than 200 µM and the IC50 is 1.45 µM. As to `COC(C(=O)C(O)C(C)O)C1Cc2cc3cc(OC4CC(OC(C)=O)C(OC5CC(O)C(OC)C(C)O5)C(C)O4)cc(O)c3c(O)c2C(=O)C1OC1CC(OC2CC(OC3CC(C)(O)C(OC(=O)C(C)C)C(C)O3)C(O)C(C)O2)C(O)C(C)O1` (stereo not drawn), the EC50 was greater than 2.09 µM; the IC50 was 0.0107 µM and 0.00389 µM. For the molecule `CC1C(=O)C(C)C(c2ccco2)N(N=O)C1c1ccco1` (stereo not drawn), the EC50 is greater than 234 µM and the IC50 is 132 µM. In the same order, the values of `C=CCC12CC(COc3ccccc3C(N)=O)OC1=Nc1ccccc1NC2=O` (stereo not drawn) are greater than 200 µM and greater than 200 µM. In the same order, the values of `CCOc1ccc(N=Nc2ccc3oc(=O)c(C(=O)Nc4ccc(OC)cc4)cc3c2)cc1` are greater than 8.51 µM and greater than 8.51 µM. In the same order, the values of `N#CCCN(CCC#N)c1ccc(/C=C2\N=C(c3ccccc3)N(NC(N)=S)C2=O)cc1` are greater than 200 µM and greater than 200 µM. `Fc1cc(-c2ncc(Cl)cc2Cl)c2cccccc1-2`: the EC50 was greater than 100 µM and the IC50 is greater than 100 µM. As for `Oc1cc(-n2cccn2)c(O)cc1-n1cccn1`, the EC50 was greater than 77.6 µM and the IC50 stood at 14.1 µM. The matching figures for `O=C(CC(C(=O)c1ccsc1)c1cccs1)c1cccs1` (stereo not drawn): greater than 21.9 µM and greater than 21.9 µM.

For `CC(=O)CC(=O)Nc1c(C)[c]([Hg][O]C(C)=O)c(C)[c]([Hg][O]C(C)=O)[c]1[Hg][O]C(C)=O`, the EC50 is greater than 1.48 µM and the IC50 was greater than 1.48 µM. Consider `CSc1nc2c(=S)[nH]c(=S)[nH]c2s1`, for which the EC50 is greater than 105 µM and the IC50 is greater than 105 µM. `Cc1cc(NCCCCCCNc2cc(C)nc3cc(N(C)C)ccc23)c2ccc(N(C)C)cc2n1`: the result was inactive. Regarding `O=C1c2cc3ccccc3cc2C2(c3ccc(Cl)cc3)NCCN12` (stereo not drawn), the EC50 is greater than 200 µM and the IC50 stood at 32.4 µM. In the same order, the values of `CN(C)CC1(C)Cc2cc(Cl)sc2C1=O` (stereo not drawn) are greater than 200 µM and greater than 200 µM. In the same order, the values of `COc1cc(C(C)O)c[n+](Cc2ccccc2)c1` (stereo not drawn) are greater than 302 µM and greater than 302 µM. For `O=C1c2c(nc3ccccc3c2-c2ccccc2)CN1Nc1ccccn1`, the EC50 is greater than 141 µM and the IC50 is greater than 141 µM. Consider `O=c1[nH]c2cc([N+](=O)[O-])ccc2nc1/C(=N/Nc1ccccc1)C(O)c1ccc(C(O)/C(=N\Nc2ccccc2)c2cnc3cc([N+](=O)[O-])ccc3n2)cc1` (stereo not drawn), for which the EC50 is greater than 49 µM and the IC50 amounted to 17 µM.

For the molecule `c1ccc(C2=NOC3COc4ccccc4OCC23)cc1` (stereo not drawn), the EC50 was greater than 93.3 µM and the IC50 was greater than 93.3 µM. `CN(C)c1ccc(C2SCC(=O)N2c2ccc(Oc3ccc(Cl)cc3)c(Cl)c2)cc1` (stereo not drawn): the EC50 was greater than 200 µM and the IC50 amounted to 29.5 µM. In the same order, the values of `CC(C)CNC12CN3CN(CN(C3)C1)C2` are greater than 1200 µM and greater than 1200 µM. In the same order, the values of `N[C@H]1CCc2c1nc1c(c2-c2ccccc2)CC[C@@H]1N` are greater than 200 µM and 83.2 µM.

Turning to `N#CC(C#N)=C(C(C#N)C#N)C(C#N)C#N`, the outcome was inactive. For the molecule `CCCCN(CCCC)C(=O)C(=O)CC(=O)/C=C/c1ccccc1`, the EC50 is greater than 288 µM and the IC50 is greater than 288 µM. With `CCOP(=O)(OCC)OC1c2[nH]cc(C(=O)OCc3ccccc3)c2-c2cc(C(=O)OC)[nH]c2C1OC` (stereo not drawn), the EC50 is greater than 200 µM and the IC50 worked out at 16.6 µM. The matching figures for `Brc1cnc2n[nH]nc2c1`: greater than 912 µM and 525 µM. Turning to `CCOC(=O)c1c(SC)nc(-c2ccc(Cl)cc2)sc1=N`, the EC50 was greater than 200 µM and the IC50 stood at 12 µM.

In the case of `Cc1cc2nc3c(C#N)c(C)c(CCCl)c(Cl)n3c2cc1C`, the EC50 was greater than 200 µM and the IC50 was 3.31 µM.

On to `C=CC[C@]12CC(=O)OC(C=CC13OCCO3)C2`, for which the EC50 is greater than 200 µM and the IC50 is greater than 200 µM. As for `COc1ccc2nc3cc([N+](=O)[O-])ccc3c(NCCO)c2c1`, the EC50 is greater than 200 µM and the IC50 was 1.05 µM.
